Consider eleven molecules from ChEMBL document CHEMBL1132149, “Potent bivalent thrombin inhibitors: replacement of the scissile peptide bond at P(1)-P(1)' with arginyl ketomethylene isosteres” (J Med Chem, 1999).

The target of the assay is Prothrombin (Homo sapiens, UniProt P00734). Nature of the assay: Inhibitory constant against thrombin.
`CC[C@@H](C)[C@H](NC(=O)[C@@H]1CCCN1C(=O)[C@H](CCC(=O)O)NC(=O)[C@H](Cc1ccc(O)cc1)NC(=O)[C@H](CC(=O)O)NC(=O)CNC(=O)[C@H](CC(N)=O)NC(=O)CNC(=O)CNC(=O)CNC(=O)CN[C@@H]1CCCN1CC(=O)[C@H](CCCN=C(N)N)NC(=O)[C@@H]1CCCN1C(=O)[C@H](N)CC1CCCCC1)C(=O)N1CCC[C@H]1C(=O)N[C@@H](CCC(=O)O)C(=O)N[C@@H](CCC(=O)O)C(=O)N[C@@H](C)C(=O)N[C@@H](CC1CCCCC1)C(=O)N[C@H](CCC(=O)O)C(=O)O`: the Ki is 5.7 pM.

With `CC[C@@H](C)[C@H](NC(=O)[C@H](CCC(=O)O)NC(=O)[C@H](CCC(=O)O)NC(=O)[C@H](Cc1ccccc1)NC(=O)[C@H](CC(=O)O)NC(=O)CNC(=O)CCCCCNC(=O)CNCC(=O)NCC(=O)[C@H](CCCNC(=N)N)NC(=O)[C@@H]1CCCN1C(=O)[C@H](N)Cc1ccccc1)C(=O)N1CCC[C@H]1C(=O)N[C@@H](CCC(=O)O)C(=O)N[C@@H](CCC(=O)O)C(=O)N[C@@H](Cc1ccc(O)cc1)C(=O)N[C@@H](CC(C)C)C(=O)N[C@@H](CCC(N)=O)C(=O)O`, the Ki was found to be 7300 pM.

`CC[C@@H](C)[C@H](NC(=O)[C@H](CCC(=O)O)NC(=O)[C@H](CCC(=O)O)NC(=O)[C@H](Cc1ccccc1)NC(=O)[C@H](CC(=O)O)NC(=O)CNC(=O)CNC(=O)CNC(=O)CNC(=O)CN(C)CC(=O)[C@H](CCCNC(=N)N)NC(=O)[C@@H]1CCCN1C(=O)[C@H](N)Cc1ccccc1)C(=O)N1CCC[C@H]1C(=O)N[C@@H](CCC(=O)O)C(=O)N[C@@H](CCC(=O)O)C(=O)N[C@@H](Cc1ccc(O)cc1)C(=O)N[C@@H](CC(C)C)C(=O)N[C@@H](CCC(N)=O)C(=O)O` displayed a Ki of 83 pM.

For the molecule `CC[C@@H](C)[C@H](NC(=O)[C@@H]1CCCN1C(=O)[C@H](CCC(=O)O)NC(=O)[C@H](Cc1ccc(O)cc1)NC(=O)[C@H](CC(=O)O)NC(=O)CNC(=O)CNC(=O)CNC(=O)CNC(=O)CN(C)CC(=O)[C@H](CCCNC(=N)N)NC(=O)[C@@H]1CCCN1C(=O)[C@H](N)CC1CCCCC1)C(=O)N1CCC[C@H]1C(=O)N[C@@H](CCC(=O)O)C(=O)N[C@@H](CCC(=O)O)C(=O)N[C@@H](Cc1ccc(O)cc1)C(=O)N[C@@H](CC1CCCCC1)C(=O)N[C@@H](CC(=O)O)C(=O)O`, the Ki was determined as 2 pM.

The molecule `CC[C@@H](C)[C@H](NC(=O)[C@H](CCC(=O)O)NC(=O)[C@H](CCC(=O)O)NC(=O)[C@H](Cc1ccccc1)NC(=O)[C@H](CC(=O)O)NC(=O)CNC(=O)CNC(=O)CNC(=O)CNC(=O)CSCC(=O)[C@H](CCCNC(=N)N)NC(=O)[C@@H]1CCCN1C(=O)[C@@H](Cc1ccccc1)NC(C)=O)C(=O)N1CCC[C@H]1C(=O)N[C@@H](CCC(=O)O)C(=O)N[C@@H](CCC(=O)O)C(=O)N[C@@H](Cc1ccc(O)cc1)C(=O)N[C@@H](CC(C)C)C(=O)N[C@@H](CCC(N)=O)C(=O)O` gave a Ki of 1060 pM.

For the molecule `CC[C@@H](C)[C@H](NC(=O)[C@@H]1CCCN1C(=O)[C@H](CCC(=O)O)NC(=O)[C@H](Cc1ccc(O)cc1)NC(=O)[C@H](CC(=O)O)NC(=O)CNC(=O)CNC(=O)CNC(=O)CNC(=O)CN(CC(=O)[C@H](CCCN=C(N)N)NC(=O)[C@@H]1CCCN1C(=O)[C@H](N)CC1CCCCC1)C(C)=O)C(=O)N1CCC[C@H]1C(=O)N[C@@H](CCC(=O)O)C(=O)N[C@@H](CCC(=O)O)C(=O)N[C@@H](Cc1ccc(O)cc1)C(=O)N[C@@H](CC1CCCCC1)C(=O)N[C@@H](CC(=O)O)C(=O)O`, the affinity corresponds to a Ki of 1.7 pM.

Molecule `CC[C@@H](C)[C@H](NC(=O)[C@@H]1CCCN1C(=O)[C@H](CCC(=O)O)NC(=O)[C@H](Cc1ccc(O)cc1)NC(=O)[C@H](CC(=O)O)NC(=O)CNC(=O)[C@H](CC(N)=O)NC(=O)CNC(=O)CNC(=O)CNC(=O)CNC(=O)CN(C)CC(=O)[C@H](CCCNC(=N)N)NC(=O)[C@@H]1CCCN1C(=O)[C@H](N)CC1CCCCC1)C(=O)N1CCC[C@H]1C(=O)N[C@@H](CCC(=O)O)C(=O)N[C@@H](CCC(=O)O)C(=O)N[C@@H](C)C(=O)N[C@@H](CC1CCCCC1)C(=O)N[C@H](CCC(=O)O)C(=O)O` returned a Ki of 0.87 pM.

Take `CC[C@@H](C)[C@H](NC(=O)[C@@H]1CCCN1C(=O)[C@H](CCC(=O)O)NC(=O)[C@H](Cc1ccc(O)cc1)NC(=O)[C@H](CC(=O)O)NC(=O)CNC(=O)CNC(=O)CNC(=O)CNC(=O)CN(C)CC(=O)[C@H](CCCNC(=N)N)NC(=O)[C@@H]1CCCN1C(=O)[C@H](N)Cc1ccccc1)C(=O)N1CCC[C@H]1C(=O)N[C@@H](CCC(=O)O)C(=O)N[C@@H](CCC(=O)O)C(=O)N[C@@H](Cc1ccc(O)cc1)C(=O)N[C@@H](CC1CCCCC1)C(=O)N[C@@H](CC(=O)O)C(=O)O`: the Ki was determined as 35 pM.

Molecule `CC[C@@H](C)[C@H](NC(=O)[C@H](CCC(=O)O)NC(=O)[C@H](CCC(=O)O)NC(=O)[C@H](Cc1ccccc1)NC(=O)[C@H](CC(=O)O)NC(=O)CNC(=O)CNC(=O)CNC(=O)CNC(=O)CSCC(=O)[C@H](CCCN=C(N)N)NC(=O)[C@@H]1CCCN1C(=O)[C@H](N)Cc1ccccc1)C(=O)N1CCC[C@H]1C(=O)N[C@@H](CCC(=O)O)C(=O)N[C@@H](CCC(=O)O)C(=O)N[C@@H](Cc1ccc(O)cc1)C(=O)N[C@@H](CC(C)C)C(=O)N[C@@H](CCC(N)=O)C(=O)O` had a Ki of 9.4 pM.

`CC[C@@H](C)[C@H](NC(=O)[C@@H]1CCCN1C(=O)[C@H](CCC(=O)O)NC(=O)[C@H](Cc1ccc(O)cc1)NC(=O)[C@H](CC(=O)O)NC(=O)CNC(=O)CNC(=O)CNC(=O)CNC(=O)[C@H](C)NCC(=O)[C@H](CCCN=C(N)N)NC(=O)[C@@H]1CCCN1C(=O)[C@H](N)CC1CCCCC1)C(=O)N1CCC[C@H]1C(=O)N[C@@H](CCC(=O)O)C(=O)N[C@@H](CCC(=O)O)C(=O)N[C@@H](Cc1ccc(O)cc1)C(=O)N[C@@H](CC1CCCCC1)C(=O)N[C@@H](CC(=O)O)C(=O)O` gave a Ki of 1.5 pM. Compared with the last molecule, the Ki is about 6.3-fold lower.

As for `CC[C@@H](C)[C@H](NC(=O)[C@@H]1CCCN1C(=O)[C@H](CCC(=O)O)NC(=O)[C@H](Cc1ccc(O)cc1)NC(=O)[C@H](CC(=O)O)NC(=O)CNC(=O)CNC(=O)CNC(=O)CNC(=O)CSCC(=O)[C@H](CCCN=C(N)N)NC(=O)[C@@H]1CCCN1C(=O)[C@H](N)CC1CCCCC1)C(=O)N1CCC[C@H]1C(=O)N[C@@H](CCC(=O)O)C(=O)N[C@@H](CCC(=O)O)C(=O)N[C@@H](C)C(=O)N[C@@H](CC1CCCCC1)C(=O)N[C@H](CCC(N)=O)C(=O)O`, the affinity corresponds to a Ki of 0.35 pM.
